In patent US20150290201A1, “TREATMENT OF MUSCULAR DYSTROPHIES AND ASSOCIATED CONDITIONS BY ADMINISTRATION OF MONOAMINE OXIDASE INHIBITORS” (UNIVERSITA DEGLI STUDI DI PADOVA, priority 2011, published 2015):

Tests used:
MAO = MAO activity assay (Amplex Red/HRP, tyramine) on muscle mitochondrial extracts after in vivo treatment; settings: Col6a1−/− mice, gastrocnemius, pargyline 50 mg/kg/day i.p. for 1 week
Description: Muscle cryosections were suspended in PBS and centrifuged at 500 g for 10 min at 4° C. The supernatant was centrifuged at 8000×g for 10 min at 4° C. and the resulting pellet was resuspended in PBS and stored on ice until use. Protein concentration was determined by the Bradford assay (Bio-Rad). MAO activity assay was based on the detection of hydrogen peroxide generated during substrate catabolism in a horseradish peroxidase (HRP) coupled reaction using 10-acetyl-3,7-dihydroxyphenoxazine (Amplex Red reagent, Molecular Probes). The mitochondrial protein extracts (40 mg) were incubated in PBS with 10 mM Amplex Red and 15 mg/ml HRP. […] The fluorescence intensity was recorded at 37° C. using a Perkin Elmer LS-50B fluorimeter at the 544/590 nm excitation/emission wavelengths. Parallel samples were run in the absence of a substrate to take into account the increase in fluorescence not due to MAO activity. […]

Col6a1^−/− mice [1] = assay: Muscle functional assessment (skinned fiber tension, gastrocnemius force, running wheel) in Col6a1−/− mice; type: in vivo
Description: (§1) Col6a1^−/− mice were backcrossed in the inbred C57BL/6J strain for eight generations as described (Irwin, W. A., et al., (2003) Nat. Genet., 35, 367-371), and data were obtained by comparing Col6a1^−/− mice with their wild-type littermates. Wild-type C57BL/10 mice and mdx (in the C57BL/10 background) were obtained from Charles River and Jackson Laboratories, respectively. Pargyline (50 mg/kg/days) or vehicle (phosphate-buffered saline, PBS) were administered by daily intraperitoneal (i.p.) injection for 7 days in 6-month-old Col6a1^−/− and C57BL/6J male mice or 5-week-old mdx and C57BL/10 male mice. During the treatment, mice were placed in separate cages with a running wheel. At the end of the treatment, mice were sacrificed and muscles were removed and stored in liquid nitrogen until use.
Single myofibers were isolated from Col6a1^−/− gastrocnemius muscle, chemically skinned as described (Rossi, R., et al., (2001) Am. J. Physiol. Cell Physiol., 281, C585-0594) and tension was measured during maximal isometric activation (pCa=4.5, T=20° C., initial sarcomere length=2.75 μm). Force measurements were performed in the left and/or right gastrocnemius muscle of anesthetized mice by electrical stimulation through the sciatic nerve, as described previously (Blaauw, B., et al., (2008) Hum. Mol. Genet., 17, 3686-3696). Voluntary exercise was evaluated by placing a wheel in the cage. Before the treatment, mice were placed in separate cages with wheel to acclimatize, then the average distance covered by each mouse in 24 h during the treatment was measured using an automatic counter.
Biochemical and histological analyses were paralleled by functional assessment of the contractile performance of muscles in vivo and isolated muscle fibers in vitro. Single-skinned muscle fibers dissected from gastrocnemius muscle were maximally calcium-activated at optimal sarcomere length. […] After acclimatizing mice for 1 week to a wheel placed in their cage, the daily average distance was measured.

Wild-type C57BL/10 mice = assay: ROS formation in muscles of wild-type C57BL/10 mice; type: in vivo; settings: WT-parg mice (n = 8); WT-veh = 100.0
Description: as §1
(§2) DHE is oxidized by ROS, forming ethidium bromide, which emits red fluorescence when intercalates with DNA (Benov, L., et al., (1998) Free Radic. Biol. Med., 25, 826-831). […] For the detection of the fluorescence, 568±25 nm excitation and 585 nm long-pass emission filter settings were used. Data were acquired and analyzed using Metamorph software (Universal Imaging).

mdx mice [2] = assay: Pathological markers (myofiber CSA, H&E inflammation, TUNEL) in mdx mice; type: in vivo; settings: pargyline treatment
Description: as §1
Cross-sections (7 μm thick) were prepared and processed for hematoxylin and eosin (H&E) staining. For the morphometric analysis of myofiber cross sectional areas (CSAs), we counted approximately 2000 fibers per mouse for each muscle type by means of ImageJ software. At least three sections from each muscle were analyzed. TUNEL (terminal deoxynucleotidyl transferase-mediated dUTP nick end-labeling) was performed on paraffin-embedded sections (7 μm thick) using the ApopTag in situ apoptosis detection kit (Chemicon). Samples were stained with peroxidase diaminobenzidine to detect TUNEL-positive nuclei and counterstained with Hoechst 33258 to identify all nuclei, as described previously (Irwin, W. A., et al., (2003) Nat. Genet, 35, 367-371). The total number of nuclei and number of TUNEL-positive nuclei were determined in randomly selected fibers using a Zeiss Axioplan microscope equipped with a Leica DC 500 camera. Membrane permeability of skeletal muscle was directly visualized by immunohistochemical staining with IgG (Weller, B., et al., (1990) J. Neurol. Sci., 100, 9-13 and Blaauw, B., et al., (2008) Hum. Mol. Genet., 17, 3686-36%). […]

Col6a1^−/− mice [3] = assay: Pathological markers (TUNEL, IgG staining, Evans blue, myofiber CSA) in Col6a1−/− mice; type: in vivo; settings: pargyline treatment
Description: as §1
Cross-sections (7 μm thick) were prepared and processed for hematoxylin and eosin (H&E) staining. For the morphometric analysis of myofiber cross sectional areas (CSAs), we counted approximately 2000 fibers per mouse for each muscle type by means of ImageJ software. At least three sections from each muscle were analyzed. TUNEL (terminal deoxynucleotidyl transferase-mediated dUTP nick end-labeling) was performed on paraffin-embedded sections (7 μm thick) using the ApopTag in situ apoptosis detection kit (Chemicon). Samples were stained with peroxidase diaminobenzidine to detect TUNEL-positive nuclei and counterstained with Hoechst 33258 to identify all nuclei, as described previously (Irwin, W. A., et al., (2003) Nat. Genet, 35, 367-371). The total number of nuclei and number of TUNEL-positive nuclei were determined in randomly selected fibers using a Zeiss Axioplan microscope equipped with a Leica DC 500 camera. Membrane permeability of skeletal muscle was directly visualized by immunohistochemical staining with IgG (Weller, B., et al., (1990) J. Neurol. Sci., 100, 9-13 and Blaauw, B., et al., (2008) Hum. Mol. Genet., 17, 3686-36%). Cryosections (10 μm thick) were incubated with anti-mouse fluorescein isothiocyanate-conjugated IgG, washed twice with PBS, mounted and visualized with an Olympus IMT-2 inverted microscope as previously described (Petronilli V., et al., (1999) Biophys. J., 76, 725-734) using excitation/emission cubes of 488/525±25 nm bandpass. Evans blue dye staining of muscles in vivo was performed by i.p. injection with 0.2 ml Evans blue (10 mg/ml in PBS; Sigma). Mice were sacrificed after 16-18 h and diaphragms were fixed with 4% paraformaldehyde overnight at 4° C. After fixation, the samples were observed by means of light microscopy.
Contractile impairment and high apoptosis rate are two specific features of skeletal muscles of Col6a1^−/− mice (Irwin, W. A., et al. (2003) Nat. Genet 35, 367-371). […] Occurrence of apoptosis was evaluated by TUNEL. […]

mdx mice [4] = assay: MAO-dependent ROS formation in muscles of mdx mice; type: in vivo; settings: mdx-parg mice (n = 8)
Description: as §1, §2

Col6a1^−/− myoblasts = assay: Mitochondrial ROS production (Mitotracker Red) in myoblasts under oxidative stress; type: cell-based, mice; settings: Col6a1−/− diaphragm myoblasts, 100 uM pargyline; inducers 100 uM H2O2, 5 uM arachidonic acid, 0.2 uM antimycin
Description: Myoblasts obtained from the diaphragm of Col6a1^−/− and Col6a1^+/+ mice were loaded with Mitotracker Red (MTR, 20 nM) to assess mitochondrial ROS production. After the first acquisition (with a fluorescence microscope), different inducers of oxidative stress (A: 100 uM H2O2, B: 5 uM arachidonic acid, C: 0.2 uM antimycin) were added and frames were collected at different intervals in the absence (filled square) and in the presence (filled triangles) of a MAO inhibitor (100 uM pargyline).
The extent of ROS accumulation in myoblasts obtained from diaphragm of Col6a1^−/− and Col6a1^+/+ mice was assessed. […] Remarkably, MAO inhibition reduced the presence of ROS in Col6a1^−/− myoblasts underlying the relevance of ROS production due to MAO activity.

mdx mice [5] = assay: Tm oxidation (DCB formation) by immunoelectrophoresis, mdx mice; type: in vivo; settings: gastrocnemius and quadriceps, i.p. pargyline for 1 week
Description: as §1
Protein extracts were prepared as described (Canton, M., et al., (2006) Eur. Heart J., 27, 875-881). Immunoblotting were stained with the following antibodies: anti-Tm CH1 clone (Sigma), anti-MAO-B D-16 and anti-MAO-A H-70 clone (Santa Cruz). […] Quantitation of Tm oxidation was performed by densitometric analysis of the bands obtained under non-reducing conditions (ImageJ software). […] Data were expressed as percentage of DCB relative to vehicle-treated wild-type mice. […]

Col6a1^−/− mice [6] = assay: Tm oxidation (DCB formation) by immunoelectrophoresis, Col6a1−/− mice; type: in vivo; settings: Col6a1−/− diaphragm, pargyline 50 mg/kg/day i.p. 1 week
Col6a1^−/− mice [7] = assay: DHE staining for ROS detection in muscle cryosections of Col6a1−/− mice; type: in vivo; settings: 6-month-old Col6a1−/− mice, pargyline 50 mg/kg/day i.p. 1 week
Description: as §1
DHE is oxidized by ROS, forming ethidium bromide, which emits red fluorescence when intercalates with DNA (Benov, L., et al., (1998) Free Radic. Biol. Med., 25, 826-831). […] For the detection of the fluorescence, 568±25 nm excitation and 585 nm long-pass emission filter settings were used. Data were acquired and analyzed using Metamorph software (Universal Imaging). […]

## C#CCN(C)Cc1ccccc1 [Pargyline, N-Benzyl-N-methylprop-2-yn-1-amine]
MAO
  MAO activity in skeletal muscle after treatment: abolished
Col6a1^−/− mice [1]; Col6a1−/− mice, pargyline treatment
  normalized force of gastrocnemius muscle in vivo: significantly increased
Col6a1^−/− mice [1]; Col6a1−/− mice, pargyline-treated versus untreated
  voluntary exercise performance (running wheel, daily average distance): significant improvement
Col6a1^−/− mice [1]; gastrocnemius fibers of pargyline-treated Col6a1−/− mice, maximal calcium activation
  contractile impairment (isometric tension of single-skinned fibers): disappeared
Wild-type C57BL/10 mice
  ROS formation, Gastrocnemius: 102.8 ± 2.8
  ROS formation, Quadriceps: 96.9 ± 6.2
Mdx mice [2]; diaphragm sections
  number of TUNEL-positive nuclei (apoptosis): significantly lower incidence
Mdx mice [2]; gastrocnemius muscle
  myofiber CSA fiber area distribution: normalized the fiber area distribution
Mdx mice [2]
  tissue inflammation in skeletal muscles (H&E): reduce tissue inflammation
Col6a1^−/− mice [3]; Col6a1−/− diaphragm
  damaged myofibers stained by Evans blue: largely reduced
  number of damaged fibers positive to IgG immunohistochemical staining: significantly decreased
Col6a1^−/− mice [3]; Col6a1−/− mice, diaphragm sections, vehicle 62.4±2.3, wild-type 2.7±1.2
  number of TUNEL-positive nuclei: 6.9±1 nuclei/mm^2
Col6a1^−/− mice [3]; Col6a1−/− tibialis anterior and diaphragm
  myofiber cross-sectional area variability (different sizes, prevalence of small fibers): markedly reduced
Mdx mice [4]; WT-veh = 100.0, mdx-veh 119.3 ± 1.3, in %
  ROS formation, Quadriceps: 102.9 ± 1.5
Mdx mice [4]; WT-veh = 100.0, mdx-veh 127.8 ± 9.0
  ROS formation, Gastrocnemius: 105.6 ± 2.2
Col6a1^−/− myoblasts
  susceptibility to oxidative stress / mitochondrial ROS (Mitotracker Red): reduced
Mdx mice [5]
  oxidative modifications (Tm oxidation, DCB): significantly decreased
Col6a1^−/− mice [6]
  DCB content (Tm oxidation): significantly reduced
Col6a1^−/− mice [7]
  abnormal production of ROS (DHE fluorescence) in muscles: significantly decreased
